Data on 18 compounds can be found in PubChem BioAssay AID274 (DTP/NCI, 2004).

Where “and” joins values, the source holds several entries; their conditions need not be identical. Equal values may be shown once. Toxic doses and inconclusive results are not listed.

This experiment deals with BDF1 mice, Lewis lung carcinoma iv, survival T/C. The experiment in a line: NCI In Vivo Anticancer Drug Screen. Data for tumor model Lewis Lung Carcinoma (intravenous) in B6D2F1 (BDF1) mice. Particulars: endpoint: median survival time, schedule: Q01DX009 (ip), higher = longer survival. How it is done:
The antitumor activity of compounds was measured in mice bearing transplantable tumors. Survival or tumor size were measured and the results are expressed as the measurement made in the treated group (T) divided by the measurement made in the vehicle treated control group (C). The tumor model used in this assay is Lewis Lung Carcinoma (intravenous) in B6D2F1 (BDF1) mice

[1] abbreviates: dose: 12.5 mg/kg/injection, vehicle: saline with Tween-80.
The mark [2] stands for this setting: dose: 25.0 mg/kg/injection, vehicle: saline with Tween-80.
The mark [3] stands for this setting: dose: 50.0 mg/kg/injection, vehicle: saline with Tween-80.
[4] abbreviates: dose: 100.0 mg/kg/injection, vehicle: saline with Tween-80.
Where [5] appears, read: dose: 1.5 mg/kg/injection, vehicle: saline.
[6] abbreviates: dose: 3.0 mg/kg/injection, vehicle: saline.
Setting [7] is: dose: 6.0 mg/kg/injection, vehicle: saline.
The mark [8] stands for this setting: dose: 100.0 mg/kg/injection, vehicle: saline.
The mark [9] stands for this setting: dose: 200.0 mg/kg/injection, vehicle: saline.
The mark [10] stands for this setting: dose: 400.0 mg/kg/injection, vehicle: saline.
[11] abbreviates: dose: 50.0 mg/kg/injection, vehicle: Klucel (hydroxypropylcellulose) (HPC).
The mark [12] stands for this setting: dose: 100.0 mg/kg/injection, vehicle: Klucel (hydroxypropylcellulose) (HPC).
[13] abbreviates: dose: 50.0 mg/kg/injection, vehicle: saline.
[14] abbreviates: dose: 12.5 mg/kg/injection, vehicle: saline.
The mark [15] stands for this setting: dose: 25.0 mg/kg/injection, vehicle: saline.
Where [16] appears, read: dose: 3.12 mg/kg/injection, vehicle: saline.
Setting [17] is: dose: 6.25 mg/kg/injection, vehicle: saline.

With `Nc1cc2c3c(cccc3c1)C(=O)N(CCN1CCCC1)C2=O`, the T/C was 99 % of control (dose: 3.12 mg/kg/injection, vehicle: saline with Tween-80); 103 % of control (dose: 6.25 mg/kg/injection, vehicle: saline with Tween-80); 103 % of control under setting [1]; 115 % of control under setting [2]; 113 % of control under setting [3]; 119 % of control under setting [4].
In the case of `O=C(N/N=C\c1cc(Br)cc(Br)c1O)N/N=C/c1cc(Br)cc(Br)c1O`, the T/C was 91 % of control under setting [1]; 96 % of control under setting [2]; 98 % of control under setting [3]; 96 % of control under setting [4]; 98 % of control (dose: 200.0 mg/kg/injection, vehicle: saline with Tween-80); 96 % of control (dose: 400.0 mg/kg/injection, vehicle: saline with Tween-80).
In the case of `[Cl][Pt+2][Cl].[NH-]CC1(C[NH-])CCCCC1`, the T/C is, setting by setting: under setting [5], 96 % of control; under setting [6], 96 % of control; under setting [7], 102 % of control.
Consider `CN(C)CC(=O)c1ccc(O)c(O)c1`, for which the T/C is, setting by setting: under setting [8], 99 % of control; under setting [9], 91 % of control; under setting [10], 90 % of control.
As to `Cn1cnc([N+](=O)[O-])c1Sc1nc(N)nc2c1ncn2C1OC(CO)C(O)C1O` (stereo not drawn), the T/C (dose: 0.78 mg/kg/injection, vehicle: saline with Tween-80) was 97 % of control; the T/C (dose: 1.56 mg/kg/injection, vehicle: saline with Tween-80) is 116 % of control; the T/C (dose: 3.13 mg/kg/injection, vehicle: saline with Tween-80) is 105 % of control; the T/C (dose: 6.25 mg/kg/injection, vehicle: suspension in saline) was 107 % of control.
Turning to `S=C(Nc1ccc(Cl)c(Cl)c1)N1c2ccccc2-n2cccc2C1c1cccnc1` (stereo not drawn), the T/C is 93 % of control and 105 % of control (dose: 12.5 mg/kg/injection, vehicle: Klucel (hydroxypropylcellulose) (HPC)); 99 % of control and 91 % of control (dose: 25.0 mg/kg/injection, vehicle: Klucel (hydroxypropylcellulose) (HPC)); 98 % of control and 100 % of control under setting [11]; 94 % of control and 101 % of control under setting [12]; 105 % of control and 110 % of control (dose: 200.0 mg/kg/injection, vehicle: Klucel (hydroxypropylcellulose) (HPC)); 115 % of control (dose: 400.0 mg/kg/injection, vehicle: Klucel (hydroxypropylcellulose) (HPC)).
Turning to `Cc1nc(N)nc(N)c1-c1ccc(Cl)c(Cl)c1`, the T/C reads like this: (dose: 0.31 mg/kg/injection, vehicle: saline) 108 % of control; (dose: 0.63 mg/kg/injection, vehicle: saline) 109 % of control; (dose: 1.25 mg/kg/injection, vehicle: saline) 113 % of control; (dose: 2.5 mg/kg/injection, vehicle: saline) 120 % of control; (dose: 5.0 mg/kg/injection, vehicle: saline) 109 % of control.
As for `O=C(CCN1CC1)OCCOC(=O)CCN1CC1`, the T/C by setting is: under setting [5], 111 % of control; under setting [6], 107 % of control; under setting [7], 99 % of control; (dose: 24.0 mg/kg/injection, vehicle: saline) 107 % of control.
For `COc1cccc2c1C(=O)c1c(O)c3c(c(O)c1C2=O)C[C@@](O)(C(=O)CO)C[C@@H]3OC1CC(N)CC(C)O1` (stereo partly drawn), the T/C (dose: 0.18 mg/kg/injection, vehicle: water) is 108 % of control and the T/C (dose: 0.37 mg/kg/injection, vehicle: water) was 112 % of control.
With `c1cc2n(n1)CCN2`, the T/C is, setting by setting: under setting [13], 105 % of control; under setting [8], 104 % of control; under setting [9], 86 % of control.
Consider `OCCCN1CCCCC1CO` (stereo not drawn), for which the T/C is, setting by setting: under setting [14], 100 % of control and 107 % of control; under setting [15], 98 % of control and 110 % of control; under setting [13], 97 % of control and 90 % of control; under setting [8], 91 % of control and 106 % of control; under setting [9], 100 % of control and 107 % of control; under setting [10], 95 % of control and 110 % of control.
Regarding `COC1C(CO)OC(n2cnc3c(=S)nc(N)[nH]c32)C1O` (stereo not drawn), the T/C is 97 % of control under setting [11] and 108 % of control under setting [12].
For the compound `CN1CCN(CCCN2c3ccccc3Sc3ccc(C(F)(F)F)cc32)CC1`, the T/C is, setting by setting: under setting [16], 109 % of control; under setting [17], 120 % of control; under setting [14], 109 % of control.
For the compound `O=C(O)CC(NC(=O)CP(=O)(O)O)C(=O)O.[NH-]C1CCCCC1[NH-].[Pt+2]` (stereo not drawn), the T/C runs as follows: (dose: 0.4 mg/kg/injection, vehicle: dextrose) 90 % of control; (dose: 0.8 mg/kg/injection, vehicle: dextrose) 110 % of control; (dose: 1.6 mg/kg/injection, vehicle: dextrose) 99 % of control; (dose: 3.0 mg/kg/injection, vehicle: dextrose) 108 % of control; (dose: 3.2 mg/kg/injection, vehicle: dextrose) 103 % of control; (dose: 6.25 mg/kg/injection, vehicle: dextrose) 110 % of control.
With `CC1(C)CC23C4COC(=O)C2CCC1C3CC4=O` (stereo not drawn), the T/C (dose: 1.5 mg/kg/injection, vehicle: DMSO) is 109 % of control; the T/C (dose: 6.0 mg/kg/injection, vehicle: DMSO) is 161 % of control; the T/C (dose: 12.0 mg/kg/injection, vehicle: DMSO) was 285 % of control; the T/C (dose: 24.0 mg/kg/injection, vehicle: DMSO) is 185 % of control; the T/C (dose: 48.0 mg/kg/injection, vehicle: DMSO) was 180 % of control.
In the case of `O=C1C2CC(Cl)C(SSC3CC4C(=O)N(SC(Cl)(Cl)C(Cl)Cl)C(=O)C4CC3Cl)CC2C(=O)N1SC(Cl)(Cl)C(Cl)Cl` (stereo not drawn), the T/C was 104 % of control (dose: 6.0 mg/kg/injection, vehicle: Klucel (hydroxypropylcellulose) (HPC)); 103 % of control (dose: 12.0 mg/kg/injection, vehicle: Klucel (hydroxypropylcellulose) (HPC)); 89 % of control (dose: 24.0 mg/kg/injection, vehicle: Klucel (hydroxypropylcellulose) (HPC)); 93 % of control (dose: 48.0 mg/kg/injection, vehicle: Klucel (hydroxypropylcellulose) (HPC)); 95 % of control (dose: 96.0 mg/kg/injection, vehicle: Klucel (hydroxypropylcellulose) (HPC)).
For the compound `COc1cc(NCCCCCCCNC(C)C)c2nccc(C)c2c1`, the T/C by setting is: under setting [16], 94 % of control; under setting [17], 100 % of control; under setting [14], 98 % of control; under setting [15], 108 % of control.
With `O=C(O)C1CC1.[Ag]`, the T/C (dose: 0.78 mg/kg/injection, vehicle: distilled water + Tween-80) was 96 % of control; the T/C (dose: 1.56 mg/kg/injection, vehicle: distilled water + Tween-80) was 110 % of control; the T/C (dose: 3.12 mg/kg/injection, vehicle: distilled water + Tween-80) was 96 % of control; the T/C (dose: 6.25 mg/kg/injection, vehicle: distilled water + Tween-80) was 100 % of control; the T/C (dose: 12.5 mg/kg/injection, vehicle: distilled water + Tween-80) is 107 % of control.
